Experimental data from US7883715B2, “Pesticide compositions containing dicarboxylic acids” (Monsanto Technology LLC, priority 2002, dated 2011).
Where two headings read alike, the source gives them in different places.

Key:
ABUTH = experiment: Greenhouse herbicidal effectiveness, ABUTH; assay type: in vivo, velvetleaf; settings: for inhibition at 75 g/ha / inhibition at 100 g/ha / inhibition at 150 g/ha / inhibition at 200 g/ha: Abutilon theophrasti, 408 h, 17 days after treatment; for inhibition at 75 g/ha: 75 g a.e./ha; for inhibition at 150 g/ha: 150 g a.e./ha; for efficacy ABUTH: Table 19A, 16 days after treatment; for % inhibition ABUTH (14 DAT) / % inhibition ABUTH (20 DAT): oxalate/oxalic acid alone, Table 44A
Text: (§1) The following greenhouse testing procedure was used for evaluating compositions of the Examples to determine herbicidal effectiveness, except where otherwise indicated.
(§2) Seeds of the plant species indicated were planted in 88 mm square pots in a soil mix which was previously sterilized and prefertilized with a 14-14-14 NPK slow release fertilizer at a rate of 3.6 kg/m3. The pots were placed in a greenhouse with sub-irrigation. About one week after emergence, seedlings were thinned as needed, including removal of any unhealthy or abnormal plants, to create a uniform series of test pots.
(§3) The plants were maintained for the duration of the test in the greenhouse where they received a minimum of 14 hours of light per day. […] Exposure temperatures were not precisely controlled but averaged about 29° C. during the day and about 21° C. during the night. Plants were sub-irrigated throughout the test to ensure adequate soil moisture levels.
(§4) Pots were assigned to different treatments in a fully randomized experimental design with 6 replications. A set of pots was left untreated as a reference against which affects of the treatments could later be evaluated.
(§5) Application of glyphosate compositions was made by spraying with a track sprayer fitted with a 9501E nozzle calibrated to deliver a spray volume of 93 liters per hectare (l/ha) at a pressure of 165 kilopascals (kPa). After treatment, pots were returned to the greenhouse until ready for evaluation.
(§6) Treatments were made using dilute aqueous compositions. These could be prepared as spray compositions directly from their ingredients, or by dilution with water of preformulated concentrate compositions.
(§7) For evaluation of herbicidal effectiveness, all plants in the test were examined by a single practiced technician, who recorded percent control, a visual measurement of the effectiveness of each treatment by comparison with untreated plants. […] The reported % control values represent the average for all replicates of each treatment.

ECHCF = experiment: Greenhouse herbicidal effectiveness, ECHCF; assay type: in vivo, Japanese millet, barnyardgrass; settings: for inhibition at 75 g/ha / inhibition at 100 g/ha / inhibition at 150 g/ha / inhibition at 200 g/ha: 408 h, 17 days after treatment; for inhibition at 75 g/ha: 75 g a.e./ha; for inhibition at 150 g/ha: 150 g a.e./ha; for efficacy ECHCF: Table 19A, 16 days after treatment
Text: as §1, §2, §3, §4, §5, §6, §7

TRZVX = experiment: Greenhouse herbicidal effectiveness, TRZVX; assay type: in vivo, wheat; settings: Table 19A, 16 days after treatment
Text: as §1, §2, §3, §4, §5, §6, §7

[1] = Table 19B, OTH1 1 % v/v, read-out: % inhibition ABUTH
[2] = Table 19B, no OTH22, no OTH1, read-out: % inhibition ABUTH
[3] = Table 19B, OTH1 1 % v/v, read-out: % inhibition ECHCF
[4] = Table 19B, no OTH22, no OTH1, read-out: % inhibition ECHCF
[5] = read-out: % inhibition ABUTH, Table 19B, OTH1 1 % v/v
[6] = read-out: % inhibition ABUTH, Table 19B, no OTH22, no OTH1
[7] = read-out: % inhibition ABUTH, Table 19B, 100 g a.e./ha, OTH1 1 % v/v
[8] = read-out: % inhibition ABUTH, Table 19B, 100 g a.e./ha, no OTH22, no OTH1
[9] = read-out: % inhibition ABUTH, Table 19B, 200 g a.e./ha, OTH1 1 % v/v
[10] = read-out: % inhibition ABUTH, Table 19B, 200 g a.e./ha, no OTH22, no OTH1
[11] = read-out: % inhibition ECHCF, Table 19B, OTH1 1 % v/v
[12] = read-out: % inhibition ECHCF, Table 19B, no OTH22, no OTH1
[13] = read-out: % inhibition ECHCF, Table 19B, 100 g a.e./ha, OTH1 1 % v/v
[14] = read-out: % inhibition ECHCF, Table 19B, 100 g a.e./ha, no OTH22, no OTH1
[15] = read-out: % inhibition ECHCF, Table 19B, 200 g a.e./ha, OTH1 1 % v/v
[16] = read-out: % inhibition ECHCF, Table 19B, 200 g a.e./ha, no OTH22, no OTH1
[17] = 1 g a.e./ha, tank mix OTH1 1 % v/v
[18] = 3 g a.e./ha, tank mix OTH1 1 % v/v
[19] = 5 g a.e./ha, tank mix OTH1 1 % v/v
[20] = 10 g a.e./ha, tank mix OTH1 1 % v/v
[21] = 30 g a.e./ha, tank mix OTH1 1 % v/v
[22] = 70 g a.e./ha, tank mix OTH1 1 % v/v
[23] = 100 g a.e./ha, tank mix OTH1 1 % v/v
[24] = 200 g a.e./ha, tank mix OTH1 1 % v/v

CCOc1cc(Oc2ccc(C(F)(F)F)cc2Cl)ccc1[N+](=O)[O-] [oxyfluorfen]
inhibition at 75 g/ha (ABUTH; [1]): 80% | inhibition at 75 g/ha (ABUTH; [2]): 81% | inhibition at 100 g/ha (ABUTH; Table 19B, 100 g a.e./ha, OTH1 1 % v/v, read-out: % inhibition ABUTH): 82% | inhibition at 100 g/ha (ABUTH; Table 19B, 100 g a.e./ha, no OTH22, no OTH1, read-out: % inhibition ABUTH): 82% | inhibition at 150 g/ha (ABUTH; [1]): 87% | inhibition at 150 g/ha (ABUTH; [2]): 84% | inhibition at 200 g/ha (ABUTH; Table 19B, 200 g a.e./ha, OTH1 1 % v/v, read-out: % inhibition ABUTH): 92% | inhibition at 200 g/ha (ABUTH; Table 19B, 200 g a.e./ha, no OTH22, no OTH1, read-out: % inhibition ABUTH): 91% | inhibition at 75 g/ha (ECHCF; [3]): 0% | inhibition at 75 g/ha (ECHCF; [4]): 0% | inhibition at 100 g/ha (ECHCF; Table 19B, 100 g a.e./ha, OTH1 1 % v/v, read-out: % inhibition ECHCF): 0% | inhibition at 100 g/ha (ECHCF; Table 19B, 100 g a.e./ha, no OTH22, no OTH1, read-out: % inhibition ECHCF): 0% | inhibition at 150 g/ha (ECHCF; [3]): 0% | inhibition at 150 g/ha (ECHCF; [4]): 0% | inhibition at 200 g/ha (ECHCF; Table 19B, 200 g a.e./ha, OTH1 1 % v/v, read-out: % inhibition ECHCF): 2% | inhibition at 200 g/ha (ECHCF; Table 19B, 200 g a.e./ha, no OTH22, no OTH1, read-out: % inhibition ECHCF): 3%

CN(C)C(=O)Nc1ccc(Cl)c(Cl)c1 [diuron]
inhibition at 75 g/ha (ABUTH; [5]): 0% | inhibition at 75 g/ha (ABUTH; [6]): 0% | inhibition at 100 g/ha (ABUTH; [7]): 0% | inhibition at 100 g/ha (ABUTH; [8]): 0% | inhibition at 150 g/ha (ABUTH; [5]): 2% | inhibition at 150 g/ha (ABUTH; [6]): 5% | inhibition at 200 g/ha (ABUTH; [9]): 10% | inhibition at 200 g/ha (ABUTH; [10]): 17% | inhibition at 75 g/ha (ECHCF; [11]): 0% | inhibition at 75 g/ha (ECHCF; [12]): 0% | inhibition at 100 g/ha (ECHCF; [13]): 0% | inhibition at 100 g/ha (ECHCF; [14]): 0% | inhibition at 150 g/ha (ECHCF; [11]): 0% | inhibition at 150 g/ha (ECHCF; [12]): 0% | inhibition at 200 g/ha (ECHCF; [15]): 0% | inhibition at 200 g/ha (ECHCF; [16]): 0%

COc1cc(OC)nc(NC(=O)NS(=O)(=O)c2ncccc2C(=O)N(C)C)n1 [nicosulfuron]
efficacy ABUTH (ABUTH; 1 g a.e./ha, no OTH1): 0.8 | efficacy ABUTH (ABUTH; [17]): 6 | efficacy ABUTH (ABUTH; 3 g a.e./ha, no OTH1): 12 | efficacy ABUTH (ABUTH; [18]): 8 | efficacy ABUTH (ABUTH; 5 g a.e./ha, no OTH1): 14 | efficacy ABUTH (ABUTH; [19]): 10 | efficacy ABUTH (ABUTH; 10 g a.e./ha, no OTH1): 28 | efficacy ABUTH (ABUTH; [20]): 58 | efficacy ECHCF (ECHCF; 1 g a.e./ha, no OTH1): 0.8 | efficacy ECHCF (ECHCF; [17]): 4 | efficacy ECHCF (ECHCF; 3 g a.e./ha, no OTH1): 13 | efficacy ECHCF (ECHCF; [18]): 10 | efficacy ECHCF (ECHCF; 5 g a.e./ha, no OTH1): 40 | efficacy ECHCF (ECHCF; [19]): 37 | efficacy ECHCF (ECHCF; 10 g a.e./ha, no OTH1): 51 | efficacy ECHCF (ECHCF; [20]): 42 | efficacy TRZVX (TRZVX; 1 g a.e./ha, no OTH1): 5 | efficacy TRZVX (TRZVX; [17]): 3 | efficacy TRZVX (TRZVX; 3 g a.e./ha, no OTH1): 15 | efficacy TRZVX (TRZVX; [18]): 25 | efficacy TRZVX (TRZVX; 5 g a.e./ha, no OTH1): 50 | efficacy TRZVX (TRZVX; [19]): 47 | efficacy TRZVX (TRZVX; 10 g a.e./ha, no OTH1): 65 | efficacy TRZVX (TRZVX; [20]): 67

CP(=O)(O)CCC(N)C(=O)O (centres unmarked) [glufosinate]
inhibition at 75 g/ha (ABUTH; [5]): 68% | inhibition at 75 g/ha (ABUTH; [6]): 22% | inhibition at 100 g/ha (ABUTH; [7]): 82% | inhibition at 100 g/ha (ABUTH; [8]): 43% | inhibition at 150 g/ha (ABUTH; [5]): 90% | inhibition at 150 g/ha (ABUTH; [6]): 74% | inhibition at 200 g/ha (ABUTH; [9]): 98% | inhibition at 200 g/ha (ABUTH; [10]): 89% | inhibition at 75 g/ha (ECHCF; [11]): 95% | inhibition at 75 g/ha (ECHCF; [12]): 94% | inhibition at 100 g/ha (ECHCF; [13]): 96% | inhibition at 100 g/ha (ECHCF; [14]): 95% | inhibition at 150 g/ha (ECHCF; [11]): 99% | inhibition at 150 g/ha (ECHCF; [12]): 98% | inhibition at 200 g/ha (ECHCF; [15]): 100% | inhibition at 200 g/ha (ECHCF; [16]): 99%

C[C@@H](Oc1ccc(Oc2ccc(C(F)(F)F)cn2)cc1)C(=O)O [fluazifop-p]
efficacy ABUTH (ABUTH; 30 g a.e./ha, no OTH1): 0, 0, 0, 0 | efficacy ABUTH (ABUTH; [21]): 0, 0, 0, 0 | efficacy ABUTH (ABUTH; 70 g a.e./ha, no OTH1): 0, 0, 0, 0 | efficacy ABUTH (ABUTH; [22]): 0, 0, 0, 0 | efficacy ABUTH (ABUTH; 100 g a.e./ha, no OTH1): 0, 0, 0, 0 | efficacy ABUTH (ABUTH; [23]): 0, 0, 0, 0 | efficacy ABUTH (ABUTH; 200 g a.e./ha, no OTH1): 0, 0, 0, 0 | efficacy ABUTH (ABUTH; [24]): 0, 0, 0, 0 | efficacy ECHCF (ECHCF; 30 g a.e./ha, no OTH1): 98 | efficacy ECHCF (ECHCF; [21]): 97 | efficacy ECHCF (ECHCF; 70 g a.e./ha, no OTH1): 100 | efficacy ECHCF (ECHCF; [22]): 100 | efficacy ECHCF (ECHCF; 100 g a.e./ha, no OTH1): 100 | efficacy ECHCF (ECHCF; [23]): 100 | efficacy ECHCF (ECHCF; 200 g a.e./ha, no OTH1): 100 | efficacy ECHCF (ECHCF; [24]): 100 | efficacy TRZVX (TRZVX; 30 g a.e./ha, no OTH1): 70 | efficacy TRZVX (TRZVX; [21]): 73 | efficacy TRZVX (TRZVX; 70 g a.e./ha, no OTH1): 85 | efficacy TRZVX (TRZVX; [22]): 83 | efficacy TRZVX (TRZVX; 100 g a.e./ha, no OTH1): 91 | efficacy TRZVX (TRZVX; [23]): 93 | efficacy TRZVX (TRZVX; 200 g a.e./ha, no OTH1): 97 | efficacy TRZVX (TRZVX; [24]): 98

N.N.O=C(O)C(=O)O [OTH1]
% inhibition ABUTH (14 DAT) (ABUTH; 2 g a.e./ha): 0, 0, 0, 0% | % inhibition ABUTH (20 DAT) (ABUTH; 2 g a.e./ha): 0, 0, 0, 0% | % inhibition ABUTH (14 DAT) (ABUTH; 3 g a.e./ha): 0, 0, 0, 0% | % inhibition ABUTH (20 DAT) (ABUTH; 3 g a.e./ha): 0, 0, 0, 0% | % inhibition ABUTH (14 DAT) (ABUTH; 4 g a.e./ha): 0, 0, 0, 0% | % inhibition ABUTH (20 DAT) (ABUTH; 4 g a.e./ha): 0, 0, 0, 0% | % inhibition ABUTH (14 DAT) (ABUTH; 5 g a.e./ha): 0, 0, 0, 0% | % inhibition ABUTH (20 DAT) (ABUTH; 5 g a.e./ha): 0, 0, 0, 0%
